# Test system: 855422-203-R-J1-PDC spheroids with HUVEC/MSC, viability
# Assay: Anticancer human tumor 855422-203-R-J1-PDC patient-derived bladder carcinoma cell line growth inhibition [PI3K]
# Settings: for IC50: curve of first compound; for viability, T/C: stronger effect = lower value
# From the text: Combinatorial screen of targeted agents with the PI3K inhibitors inavolisib, alpelisib, duvelisib, and copanlisib in multi-cell type tumor spheroids
# A high-throughput screen of multi-cell type tumor spheroids was designed to identify active combinations of targeted small molecules and PI3K pathway inhibitors. Complex spheroids include a stromal component modeled by human endothelial cells (HUVEC) and fibroblasts modeled by human mesenchymal stem cells (MSCs). The concentration ranges selected for each drug and investigational agent were based upon clinically achievable concentrations if the clinical Cmax of the agent was known.
# Compounds. The drugs and investigational agents: inavolisib (NSC800729), alpelisib (NSC765974), duvelisib (NSC772469), copanlisib (NSC816437), ipatasertib (NSC767898), afuresertib (NSC778305), talazoparib (NSC767125), sapanisertib (NSC764658), selumetinib (NSC741078), tovorafenib (DAY101, NSC766906), vemurafenib (NSC761431), ravoxertinib (NSC781343), sotorasib (NSC818433), MRTX1133 (NSC 836407), abemaciclib (NSC 768073), palbociclib (NSC758247), venetoclax (NSC 766270), SY5609 (NSC837396), enzalutamide (NSC755605), and darolutamide (NSC825331), were obtained from the National Cancer Institute (NCI) Developmental Therapeutics Program Chemical Repository. The FDA-approved anticancer drug set is available from the NCI Developmental Therapeutics Program. […] The stock solutions were prepared in dimethyl sulfoxide (DMSO, Sigma-Aldrich, St. Louis, MO, cat. D2650) at 800-fold the tested concentration and stored at -70 degrees C prior to their use. All drugs and investigational agents were tested over a range starting from a high concentration at or near the clinical Cmax and decreasing in half-log increments. If the clinical Cmax for an agent had not been determined, the highest concentration tested was 10 microM.
# Cell Culture. All cells were maintained in an incubator at 37 degrees C and 5% CO2 with 95% humidity. The PDC lines were cultured according to standard operating procedures established by the NCI PDMR (https://pdmr.cancer.gov/sops/default.htm). All PDCs were thawed and cultured in Matrigel-coated flasks prepared with a working solution of 1X Ham's F-12 nutrient mix, without supplementation (Invitrogen, Waltham, MA, cat. 11765054), 100 U/mL penicillin-streptomycin (Invitrogen, cat. 15140122), and 2.5% Matrigel (Corning Inc., Corning, NY, cat. 354248) for the first three passages. The 354836-022-R-J1-PDC, 475296-252-R-J1-PDC, and 997726-040-R-J2-PDC lines were cultured in 6A media, which includes advanced DMEM/F-12 (Thermo Fisher Scientific, cat. 12634028), 10 mM HEPES (Thermo Fisher Scientific, cat. 15630080), 1X GlutaMAX supplement (Thermo Fisher Scientific, cat. 35050061), 0.1 mg/mL primocin (InvivoGen, San Diego, CA, cat. ant-pm-2), 10% defined fetal bovine serum, heat inactivated (HyClone Laboratories Inc., Logan, UT, cat. SH30070.03HI), 50% L-WRN conditioned media (ATCC, cat. CRL-3276), 1.25 mM N-Acetyl-L-cysteine (Sigma-Aldrich, cat. A9165), 10 mM nicotinamide (Sigma-Aldrich, cat. N0636), 1X B-27 supplement (Thermo Fisher Scientific, cat. 17504044), 1X N-2 supplement (Thermo Fisher Scientific, cat. 17502048), and 10 microM Y-27632 dihydrochloride (Tocris Bioscience, Bristol, United Kingdom, cat. 1254). The 624824-186-R-J2-PDC line was cultured in 6C/Colon 1B media, which includes all 6A media components plus 50 ng/mL human EGF recombinant protein (Thermo Fisher Scientific, cat. PHG0311). […]
# [1] = second compound 0.0316 µM, first compound 0.0316 µM
# [2] = second compound 0.0316 µM, first compound 0.1 µM
# [3] = second compound 0.0316 µM, first compound 0.316 µM
# [4] = second compound 0.0316 µM, first compound 1 µM
# [5] = second compound 0.0316 µM, first compound 3.16 µM
# [6] = second compound 0.0316 µM, first compound 10 µM
# [7] = second compound 0.1 µM, first compound 0.0316 µM
# [8] = second compound 0.1 µM, first compound 0.1 µM
# [9] = second compound 0.1 µM, first compound 0.316 µM
# [10] = second compound 0.1 µM, first compound 1 µM
# [11] = second compound 0.1 µM, first compound 3.16 µM
# [12] = second compound 0.1 µM, first compound 10 µM
# [13] = second compound 0.316 µM, first compound 0.0316 µM
# [14] = second compound 0.316 µM, first compound 0.1 µM
# [15] = second compound 0.316 µM, first compound 0.316 µM
# [16] = second compound 0.316 µM, first compound 1 µM
# [17] = second compound 0.316 µM, first compound 3.16 µM
# [18] = second compound 0.316 µM, first compound 10 µM
# [19] = second compound 1 µM, first compound 0.0316 µM
# [20] = second compound 1 µM, first compound 0.1 µM
# [21] = second compound 1 µM, first compound 0.316 µM
# [22] = second compound 1 µM, first compound 1 µM
# [23] = second compound 1 µM, first compound 3.16 µM
# [24] = second compound 1 µM, first compound 10 µM
# [25] = second compound 3.16 µM, first compound 0.0316 µM
# [26] = second compound 3.16 µM, first compound 0.1 µM
# [27] = second compound 3.16 µM, first compound 0.316 µM
# [28] = second compound 3.16 µM, first compound 1 µM
# [29] = second compound 3.16 µM, first compound 3.16 µM
# [30] = second compound 3.16 µM, first compound 10 µM
# [31] = second compound 10 µM, first compound 0.0316 µM
# [32] = second compound 10 µM, first compound 0.1 µM
# [33] = second compound 10 µM, first compound 0.316 µM
# [34] = second compound 10 µM, first compound 1 µM
# [35] = second compound 10 µM, first compound 3.16 µM
# [36] = second compound 10 µM, first compound 10 µM
# 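Also: agents incubated with spheroids for one week before read-out.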
# 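For viability, T/C in this document: 100% = DMSO vehicle-treated control wells.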
compound,measurement,setting,value
CCCS(=O)(=O)Nc1ccc(F)c(C(=O)c2c[nH]c3ncc(-c4ccc(Cl)cc4)cc23)c1F + CC(Nc1ncnc2nc[nH]c12)c1cc2cccc(Cl)c2c(=O)n1-c1ccccc1,IC50,second compound 0.0316 µM,3.7 µM
same,IC50,second compound 0.1 µM,3.69 µM
same,IC50,second compound 0.316 µM,4.35 µM
same,IC50,second compound 1 µM,4.64 µM
same,IC50,second compound 3.16 µM,4.24 µM
same,IC50,second compound 10 µM,3.69 µM
same,"viability, T/C",[1],118%
same,"viability, T/C",[2],88.6%
same,"viability, T/C",[3],102%
same,"viability, T/C",[4],85.9%
same,"viability, T/C",[5],59%
same,"viability, T/C",[6],0.26%
same,"viability, T/C",[7],110%
same,"viability, T/C",[8],109%
same,"viability, T/C",[9],103%
same,"viability, T/C",[10],88.1%
same,"viability, T/C",[11],58.1%
same,"viability, T/C",[12],0.13%
same,"viability, T/C",[13],100%
same,"viability, T/C",[14],97.9%
same,"viability, T/C",[15],90.7%
same,"viability, T/C",[16],88.4%
same,"viability, T/C",[17],70.4%
same,"viability, T/C",[18],0.12%
same,"viability, T/C",[19],92.8%
same,"viability, T/C",[20],98.2%
same,"viability, T/C",[21],98%
same,"viability, T/C",[22],91.6%
same,"viability, T/C",[23],75%
same,"viability, T/C",[24],0.2%
same,"viability, T/C",[25],89.2%
same,"viability, T/C",[26],100%
same,"viability, T/C",[27],99.7%
same,"viability, T/C",[28],78.2%
same,"viability, T/C",[29],70%
same,"viability, T/C",[30],0.61%
same,"viability, T/C",[31],87%
same,"viability, T/C",[32],83.4%
same,"viability, T/C",[33],77.8%
same,"viability, T/C",[34],76.9%
same,"viability, T/C",[35],58.2%
same,"viability, T/C",[36],0.42%
Cn1cnc2c(F)c(Nc3ccc(Br)cc3Cl)c(C(=O)NOCCO)cc21 + CC(Nc1ncnc2nc[nH]c12)c1cc2cccc(Cl)c2c(=O)n1-c1ccccc1,IC50,second compound 0.0316 µM,> 3 µM
same,IC50,second compound 0.1 µM,> 3 µM
same,IC50,second compound 0.316 µM,2.38 µM
same,IC50,second compound 1 µM,2.17 µM
same,IC50,second compound 3.16 µM,1.65 µM
same,IC50,second compound 10 µM,0.529 µM
same,"viability, T/C","second compound 0.0316 µM, first compound 0.00949 µM",116%
same,"viability, T/C","second compound 0.0316 µM, first compound 0.03 µM",90.7%
same,"viability, T/C","second compound 0.0316 µM, first compound 0.0949 µM",114%
same,"viability, T/C","second compound 0.0316 µM, first compound 0.3 µM",87.9%
same,"viability, T/C","second compound 0.0316 µM, first compound 0.949 µM",78.6%
same,"viability, T/C","second compound 0.0316 µM, first compound 3 µM",50.4%
same,"viability, T/C","second compound 0.1 µM, first compound 0.00949 µM",109%
same,"viability, T/C","second compound 0.1 µM, first compound 0.03 µM",97%
same,"viability, T/C","second compound 0.1 µM, first compound 0.0949 µM",104%
same,"viability, T/C","second compound 0.1 µM, first compound 0.3 µM",93.8%
same,"viability, T/C","second compound 0.1 µM, first compound 0.949 µM",90.5%
same,"viability, T/C","second compound 0.1 µM, first compound 3 µM",50.1%
same,"viability, T/C","second compound 0.316 µM, first compound 0.00949 µM",91.2%
same,"viability, T/C","second compound 0.316 µM, first compound 0.03 µM",100%
same,"viability, T/C","second compound 0.316 µM, first compound 0.0949 µM",101%
same,"viability, T/C","second compound 0.316 µM, first compound 0.3 µM",103%
same,"viability, T/C","second compound 0.316 µM, first compound 0.949 µM",80.2%
same,"viability, T/C","second compound 0.316 µM, first compound 3 µM",42.4%
same,"viability, T/C","second compound 1 µM, first compound 0.00949 µM",86.9%
same,"viability, T/C","second compound 1 µM, first compound 0.03 µM",96.3%
same,"viability, T/C","second compound 1 µM, first compound 0.0949 µM",103%
same,"viability, T/C","second compound 1 µM, first compound 0.3 µM",88.1%
same,"viability, T/C","second compound 1 µM, first compound 0.949 µM",79%
same,"viability, T/C","second compound 1 µM, first compound 3 µM",38.7%
same,"viability, T/C","second compound 3.16 µM, first compound 0.00949 µM",97%
same,"viability, T/C","second compound 3.16 µM, first compound 0.03 µM",96.5%
same,"viability, T/C","second compound 3.16 µM, first compound 0.0949 µM",100%
same,"viability, T/C","second compound 3.16 µM, first compound 0.3 µM",87.3%
same,"viability, T/C","second compound 3.16 µM, first compound 0.949 µM",67.3%
same,"viability, T/C","second compound 3.16 µM, first compound 3 µM",31.8%
same,"viability, T/C","second compound 10 µM, first compound 0.00949 µM",85.9%
same,"viability, T/C","second compound 10 µM, first compound 0.03 µM",74.1%
same,"viability, T/C","second compound 10 µM, first compound 0.0949 µM",70.9%
same,"viability, T/C","second compound 10 µM, first compound 0.3 µM",58.6%
same,"viability, T/C","second compound 10 µM, first compound 0.949 µM",41.6%
same,"viability, T/C","second compound 10 µM, first compound 3 µM",21.4%
CC(Cn1ccc(-c2ccc(C#N)c(Cl)c2)n1)NC(=O)c1cc(C(C)O)[nH]n1 (stereo unspecified) + CC(Nc1ncnc2nc[nH]c12)c1cc2cccc(Cl)c2c(=O)n1-c1ccccc1,IC50,second compound 0.0316 µM,> 10 µM
same,IC50,second compound 0.1 µM,> 10 µM
same,IC50,second compound 0.316 µM,> 10 µM
same,IC50,second compound 1 µM,> 10 µM
same,IC50,second compound 3.16 µM,> 10 µM
same,IC50,second compound 10 µM,> 10 µM
same,"viability, T/C",[1],105%
same,"viability, T/C",[2],93.3%
same,"viability, T/C",[3],113%
same,"viability, T/C",[4],98.3%
same,"viability, T/C",[5],91.6%
same,"viability, T/C",[6],67.8%
same,"viability, T/C",[7],105%
same,"viability, T/C",[8],107%
same,"viability, T/C",[9],106%
same,"viability, T/C",[10],105%
same,"viability, T/C",[11],90.3%
same,"viability, T/C",[12],82.8%
same,"viability, T/C",[13],97%
same,"viability, T/C",[14],104%
same,"viability, T/C",[15],96.6%
same,"viability, T/C",[16],112%
same,"viability, T/C",[17],89.9%
same,"viability, T/C",[18],77.4%
same,"viability, T/C",[19],92.9%
same,"viability, T/C",[20],108%
same,"viability, T/C",[21],107%
same,"viability, T/C",[22],103%
same,"viability, T/C",[23],95.5%
same,"viability, T/C",[24],95.7%
same,"viability, T/C",[25],97.3%
same,"viability, T/C",[26],91.1%
same,"viability, T/C",[27],108%
same,"viability, T/C",[28],101%
same,"viability, T/C",[29],90.4%
same,"viability, T/C",[30],78.7%
same,"viability, T/C",[31],88.5%
same,"viability, T/C",[32],84.9%
same,"viability, T/C",[33],89.5%
same,"viability, T/C",[34],82.3%
same,"viability, T/C",[35],74.5%
same,"viability, T/C",[36],70%
